Patent publication US8198325B2, “Unsaturated alkyl esters of 5-aminolevulinic acid, their preparation and their use” (Industry Foundation of Chonnam National University, priority 2006, dated 2012)

Assays:
[1] = test system: all of the cells except for HEK (hF, A431, TXM 13); experiment: Cytotoxicity test (MTT), summary for all of the cells except for HEK; assay type: cell-based; conditions: text summary of the tables
Procedure: (§1) 3. Cytotoxicity Test (Cell Survival Test)
(§2) Cytotoxicity was conducted through an MTT assay (Chemicon, Serologicals Corporation, USA) as follows.
(§3) Cells were seeded at a density of 3×10^4 cells/well in 96-well plates (Nunc Do, Denmark).
(§4) When the cells were at a confluence of about 60˜70%, 24 hours after seeding, the media was exchanged for 100 μl of fresh, serum-free media containing various respective concentrations of ALA or ALA-ester, after which the cells were incubated for an additional 24 hours.
(§5) An MTT solution (0.5 mg/mL) was added in an amount of […] to each well, followed by incubation for 4 hours to form formazan crystals. A color-developing solution (isopropanol with 0.04 N HCl) was added in an amount of […] per well to solubilize the formazan crystals.
(§6) The plates were measured for absorbance at 570 nm using an ELISA reader (EMAX, Molecular Device, USA).

[2] = test system: Human dermal fibroblast (hF); experiment: Cytotoxicity test (cell survival), MTT assay, hF; assay type: cell-based; conditions: 24 hours
Procedure: as §1, §2, §3, §4, §5, §6
(2) Human Dermal Fibroblast (hF)

[3] = test system: human epithelium keratocyte (HEK), human dermal fibroblast (hF), squamous cell carcinoma (A431), malignant melanoma (TXM13); experiment: Fluorescence spectroscopy of PpIX synthesis in all cell lines (FIG. 2); assay type: cell-based; conditions: range from 0.01 to 1 mM, 4 hours incubation
Procedure: 4. Fluorescence Spectroscopy
The synthesis of PpIX, induced by ALA and unsaturated alkyl esters of ALA in cells and skin tissues, was quantified using fluorescence spectroscopy.
The intensity of PpIX was measured on a fluorescence spectrophotometer (Uvikon, model 943) with excitation at 408 nm.
Each cell line was plated at a density of 2×10^5 cells in a 10 cm^2-dish (Falcon), and when the cells reached a confluent state of 70˜80%, serum-free media containing various concentrations (0.001˜1 mM) of ALA or ALA esters was added to the cells, followed by incubation for 4 hours.
After being washed once with PBS, the cells were detached with a 50% methanol solution containing 1M […] (HClO4) and scraped off using a Costar cell scraper.
The cells thus harvested were incubated for 5 min and centrifuged.
The fluorescence of the supernatant thus obtained was determined using a spectrofluorometer with excitation at 405 nm and emission at 605 nm.
The results are graphed in FIGS. 1 and 2.

Each cell line = experiment: Apoptosis and cell death by Annexin V-FITC/PI flow cytometry after visible light (FIG. 8); assay type: cell-based
Procedure: 6. Research into Apoptosis and Cell Death A. Cell Line Each cell line cultured in 6-well plates was treated with ALA or ALA esters of the present invention, irradiated with visible light from an LED, and stained with Annexin V-FITC and PI (Annexin V-FITC Apoptosis detection Kit, BD) before the measurement of apoptosis using flow cytometry (FACSCalibur, BD, USA).

[4] = test system: Malignant melanoma (TMX 13); experiment: Cytotoxicity test (cell survival), MTT assay, TXM 13; assay type: cell-based; conditions: 24 hours
Procedure: as §1, §2, §3, §4, §5, §6
(4) Malignant Melanoma (TMX 13)

[5] = test system: human epidermal keratinocyte (HEK), human dermal fibroblast (hF), squamous cell carcinoma (A431), malignant melanoma (TXM 13); experiment: Fluorescence microscopy of PpIX in cell lines (FIG. 5); assay type: cell-based; conditions: normal and cancer cell lines, fluorescence microscope
Procedure: 5. Observation Under Fluorescence Microscope
Each cell line and ICR mouse skin tissue were treated with the ALA esters of the present invention, and the regions where PpxIX was expressed were observed under a fluorescence microscope.
The normal cell lines, human epidermal keratinocytes (HEK) and human dermal fibroblasts (hF) and the cancer cell lines squamous cell carcinoma A431 and malignant melanoma TXM13 were treated with […] of the ALA esters of the present invention or ALA, followed by monitoring the fluorescence of the synthesized PpIX under a fluorescence microscope.

[6] = test system: skin of ICR mice (epidermis, sebaceous gland); experiment: Cell death in skin tissue after ointment and LED irradiation, H&E (FIGS. 9, 10); assay type: in vivo
Procedure: Ointments comprising ALA or the ALA esters of the present invention at various concentrations (5˜15%) were applied in a predetermined amount ([…]) to the back of shaved ICR mice.
1 and 4 hours after the application, the back was irradiated with LED visible light (dose 25 J/cm^2).
24, 48 and 72 hours after the irradiation, skin samples were taken from the back of the mice, stained with hematoxylin-eosin (H&E) and observed for cell death.

[7] = test system: Human epidermal keratinocyte (HEK); experiment: Cytotoxicity test (cell survival), MTT assay, HEK; assay type: cell-based; conditions: 24 hours; for MTT absorbance (OD): 570 nm; for Cell survival Avg (%) ± SD (%): Table 3
Procedure: as §1, §2, §3, §4, §5, §6
(1) Human Epidermal Keratinocyte (HEK)
Cell survival of the human epidermal keratinocytes treated with ALA esters of the present invention and with ALA was compared. The results are summarized in Tables 1 and 2, which are represented in different manners depending on the measurements.

[8] = test system: Squamous cell carcinoma (A431); experiment: Cytotoxicity test (cell survival), MTT assay, A431; assay type: cell-based; conditions: 24 hours
Procedure: as §1, §2, §3, §4, §5, §6
(3) Squamous Cell Carcinoma (A431)

Question: With `NCC(=O)CCC(=O)O` [ALA, 5-Aminolevulinic acid] as the compound, how does the Cell survival [1] read?
Answer: Its Cell survival is ≥ 70%.

Question: And the “Cell survival Avg (%) ± SD (%)” value ([2]; 0.01 mM)?
Answer: The value was 109.74 ± 11.55%.

Question: What about the “Cell survival Avg (%) ± SD (%)” value ([2]; 0.05 mM) of the same compound?
Answer: The value was 125.18 ± 14.08%.

Question: What about the “Cell survival Avg (%) ± SD (%)” value ([2]; 0.1 mM) of the same compound?
Answer: Its value is 125.27 ± 16.1%.

Question: And the “Cell survival Avg (%) ± SD (%)” value ([2]; 0.5 mM)?
Answer: Its value is 95.218 ± 9.47%.

Question: And the “Cell survival Avg (%) ± SD (%)” value ([2]; 1 mM)?
Answer: Its value is 99.89 ± 18.3%.

Question: What about the “Cell survival Avg (%) ± SD (%)” value ([2]; 2 mM) of the same compound?
Answer: Its value is 97.66 ± 9.45%.

Question: What about the “PpIX synthesis, dose dependence” value [3] of the same compound?
Answer: The value was “increase in a dose-dependent manner”.

Question: And the “Photo-induced apoptosis (Annexin V/PI)” value (Each cell line; 1 mM, then irradiation 5-20 J/cm^2, FIGS. 8C and D)?
Answer: The value was “induced the cells to undergo apoptosis (Annexin V+/PI−) or the late stage of apoptosis (Annexin V+/PI+)”.

Question: What about the “Cell survival (flow cytometry)” value (Each cell line; treated but with no irradiation with visible light, FIGS. 8A and B) of the same compound?
Answer: Its value is ≥ 85%.

Question: And the “Cell survival Avg ± SD (%)” value ([4]; TXM 13, 0.01 mM)?
Answer: Its value is 100 ± 10.22%.

Question: What about the “Cell survival Avg ± SD (%)” value ([4]; TXM 13, 0.05 mM) of the same compound?
Answer: Its value is 93.12 ± 5.82%.

Question: And the “Cell survival Avg ± SD (%)” value ([4]; TXM 13, 0.1 mM)?
Answer: Its value is 86.66 ± 6.95%.

Question: And the “Cell survival Avg ± SD (%)” value ([4]; TXM 13, 0.5 mM)?
Answer: Its value is 83.75 ± 9.57%.

Question: And the “Cell survival Avg ± SD (%)” value ([4]; TXM 13, 1 mM)?
Answer: The value was 89.91 ± 6.33%.

Question: What about the “Cell survival Avg ± SD (%)” value ([4]; TXM 13, 2 mM) of the same compound?
Answer: Its value is 93.6 ± 5.13%.

Question: And the “PpIX fluorescence in cytoplasm” value [5]?
Answer: Its value is “can induce the synthesis of PpIX in both normal and cancer cell lines”.

Question: What about the “Epidermis histology (H&E) after irradiation” value ([6]; 24 hours after visible light 25 J/cm^2, FIG. 9A) of the same compound?
Answer: Its value is “apoptosis or necrosis of the epidermis”.

Question: What about the “Sebaceous gland morphology after irradiation” value ([6]; 24 hours after visible light 25 J/cm^2, FIG. 10) of the same compound?
Answer: The value was “destroyed partially or wholly”.

Question: What about the “MTT absorbance (OD)” value ([7]; 0.01 mM) of the same compound?
Answer: Its value is 3.428 OD.

Question: What about the “Cell survival Avg (%) ± SD (%)” value ([7]; 0.01 mM) of the same compound?
Answer: The value was 131.83 ± 0.9%.

Question: And the “MTT absorbance (OD)” value ([7]; 0.05 mM)?
Answer: Its value is 3.318 OD.

Question: And the “Cell survival Avg (%) ± SD (%)” value ([7]; 0.05 mM)?
Answer: The value was 112.32 ± 0.7%.

Question: And the “MTT absorbance (OD)” value ([7]; 0.1 mM)?
Answer: The value was 3.457 OD.

Question: And the “Cell survival Avg (%) ± SD (%)” value ([7]; 0.1 mM)?
Answer: Its value is 132.21 ± 0.35%.

Question: And the “MTT absorbance (OD)” value ([7]; 0.5 mM)?
Answer: The value was 3.285 OD.

Question: What about the “Cell survival Avg (%) ± SD (%)” value ([7]; 0.5 mM) of the same compound?
Answer: The value was 103.43 ± 0.15%.

Question: And the “MTT absorbance (OD)” value ([7]; 1 mM)?
Answer: Its value is 2.802 OD.

Question: And the “Cell survival Avg (%) ± SD (%)” value ([7]; 1 mM)?
Answer: Its value is 100.94 ± 6.16%.

Question: What about the “MTT absorbance (OD)” value ([7]; 2 mM) of the same compound?
Answer: Its value is 2.179 OD.

Question: What about the “Cell survival Avg (%) ± SD (%)” value ([7]; 2 mM) of the same compound?
Answer: The value was 84.9 ± 5.12%.

Question: What about the “MTT absorbance (OD)” value ([7]; 5 mM) of the same compound?
Answer: Its value is 1.659 OD.

Question: And the activity at 10 µM ([7]; Homo sapiens, HEK001, 0.01 mM, Table 2, read-out: Cell survival (% of control C, in brackets))?
Answer: The activity at 10 µM was 97.6%.

Question: What about the activity at 2000 µM ([7]; Homo sapiens, HEK2, 2 mM, Table 2, read-out: Cell survival (% of control C, in brackets)) of the same compound?
Answer: The activity at 2000 µM was 62.1%.

Question: And the activity at 50 µM ([7]; Homo sapiens, Keratinocyte, 0.05 mM, Table 2, read-out: Cell survival (% of control C, in brackets))?
Answer: Its activity at 50 µM is 94.5%.

Question: And the activity at 100 µM ([7]; Homo sapiens, Keratinocyte, 0.1 mM, Table 2, read-out: Cell survival (% of control C, in brackets))?
Answer: Its activity at 100 µM is 98.5%.

Question: What about the activity at 500 µM ([7]; Homo sapiens, Keratinocyte, 0.5 mM, Table 2, read-out: Cell survival (% of control C, in brackets)) of the same compound?
Answer: The activity at 500 µM was 92.8%.

Question: And the activity at 1000 µM ([7]; Homo sapiens, Keratinocyte, 1 mM, Table 2, read-out: Cell survival (% of control C, in brackets))?
Answer: The activity at 1000 µM was 79.7%.

Question: And the activity at 5000 µM ([7]; Homo sapiens, Keratinocyte, 5 mM, Table 2, read-out: Cell survival (% of control C, in brackets))?
Answer: Its activity at 5000 µM is 47.2%.

Question: What about the “Cell survival Avg (%) ± SD (%)” value ([8]; A431, 0.01 mM) of the same compound?
Answer: Its value is 102.99 ± 0.71%.

Question: And the “Cell survival Avg (%) ± SD (%)” value ([8]; A431, 0.05 mM)?
Answer: The value was 104.98 ± 0.35%.

Question: And the “Cell survival Avg (%) ± SD (%)” value ([8]; A431, 0.1 mM)?
Answer: The value was 106.79 ± 0.15%.

Question: And the “Cell survival Avg (%) ± SD (%)” value ([8]; A431, 0.5 mM)?
Answer: Its value is 81.6 ± 6.16%.

Question: What about the “Cell survival Avg (%) ± SD (%)” value ([8]; A431, 1 mM) of the same compound?
Answer: Its value is 84.17 ± 5.12%.

Question: And the “Cell survival Avg (%) ± SD (%)” value ([8]; A431, 2 mM)?
Answer: Its value is 82.63 ± 2.44%.
